BindingDB's records for PubMed 1586393 (U. 109, 1992)

target: D(3) dopamine receptor (Homo sapiens, UniProt P35462)
Sequence (P35462 as listed by the source): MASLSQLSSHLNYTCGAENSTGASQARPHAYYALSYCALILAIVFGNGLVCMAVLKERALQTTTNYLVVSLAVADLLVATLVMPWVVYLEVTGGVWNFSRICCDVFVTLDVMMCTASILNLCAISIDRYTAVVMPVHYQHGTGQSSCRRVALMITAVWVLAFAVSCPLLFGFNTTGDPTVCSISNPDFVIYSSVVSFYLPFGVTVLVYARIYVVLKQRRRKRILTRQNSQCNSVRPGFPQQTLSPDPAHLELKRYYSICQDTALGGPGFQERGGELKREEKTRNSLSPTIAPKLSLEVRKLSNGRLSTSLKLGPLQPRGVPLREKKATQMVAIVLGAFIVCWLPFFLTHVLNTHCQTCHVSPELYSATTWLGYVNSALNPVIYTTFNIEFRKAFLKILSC

SMILES | Ki
NC(=O)C1(N2CCCCC2)CCN(CCCN2c3ccccc3CCc3ccccc32)CC1 [CAS_5942-95-0] | 0.015 µM
CN(C)S(=O)(=O)c1ccc2c(c1)N(CCCN1CCC(CCO)CC1)c1ccccc1S2 [CAS_39860-99-6] | 0.00028 µM
CCCN[C@@H]1CCc2c(OC)cccc2[C@@H]1C [CAS_85379-09-5] | 0.139 µM
CCCN(CCC)C1C=Cc2c(OC)cccc2C1C (configuration not stated) [CAS_5311190] | 0.011 µM
Nc1nc2c(ncn2[C@@H]2O[C@H](COP(=O)(O)OP(=O)(O)NP(=O)(O)O)[C@@H](O)[C@H]2O)c(=O)[nH]1 [Guanylyl imidodiphosphate] | 0.034 µM
CN1CCN(CCCN2c3ccccc3Sc3ccc(S(=O)(=O)N(C)C)cc32)CC1 [NSC_92178] | 0.0012 µM
CCS(=O)(=O)c1cc(C(=O)NCC2CCCN2CC2CC2)c(OC)cc1I (configuration not stated) [NSC_122245] | 0.0013 µM
